Consider 31 compounds from patent US10590118B2, “Bicyclic heterocyclic derivatives as bromodomain inhibitors” (Orion Corporation, priority 2014, dated 2020).

pIC50: −log10 of the molar value. Bounds are passed on as bounds.

The test concerns the target T1, Bet bromodomain protein (BRD4) (Homo sapiens, UniProt O60885).
T1 construct: made in house
The experiment in a line: Bet bromodomain TR-FRET assay. The settings on record: 300 nM acetyl histone peptide substrate, results given as Group A/B/C. The format is binding. Here is the method:
In-Vitro Biochemical Data of bicyclic heterocyclic derivatives in time-resolved fluorescence resonance energy transfer (TR-FRET) assay.
The Bet brommodomain TR-FRET assay has been used to identify compounds that bind to bet bromodomain and prevent its interaction with acetylated histone peptides.
In the assay, optimized concentration of in-house Bet bromodomain protein (BRD4) and 300 nM of acetyl histone peptide substrate were diluted in assay buffer (50 mM HEPES, pH: 7.5, 50 mM NaCl, 500 μM CHAPS) and were added to the positive control and test control wells in a 384 well plate. Substrate control wells have 300 nM of acetyl histone peptide substrate diluted in assay buffer. Buffer blank wells were added with assay buffer. The reaction mixture was allowed for incubation at room temperature for 30 mins. Stock solutions of test compounds at 20 mM DMSO are prepared. Compounds are serially diluted and added to the test wells in 384-well polypropylene plates. The reaction mixture was further incubated for 30 mins at room temperature on a plate shaker. 2 nM of Europium labeled streptavidn and 10 nM of XL-665 labeled antibody diluted in detection buffer (50 mM HEPES, pH: 7.5, 50 mM NaCl, 500 μM CHAPS and 800 mM KF) were added to all the wells excluding the buffer blank wells. The reaction plate was incubated for additional 30 mins at room temperature on plate shaker. The plate was read in Perkin Elmer WALLAC 1420 Multilabel Counter Victor 3 (Ex: 340 nm Em: 615 and 665 nm). The amount of displacement of the peptide was measured as ratio of specific 665 nm energy transfer signal to 615 nm signals. The compounds IC50 was determined by fitting the dose response data to sigmoid curve fitting equation using Graph Pad Prism software V5.
(In TR-FRET formats the signal depends on donor and acceptor labels being close together.)
By pIC50 is commonly meant the IC50 on a negative log10 scale, so that one unit is a factor of ten. A low value points to a large IC50. Take `COc1cc2c(cc1-c1c(C)noc1C)cc(C(O)C(F)(F)F)c(=O)n2Cc1ccccn1` (racemic) [Compound 101, 6-(3,5-dimethylisoxazol-4-yl)-methoxy-1-(pyridin-2-ylmethyl)-3-(2,2,2-trifluoro-1-hydroxyethyl)quinolin-2(1H)-one]: the negative-log IC50 (pIC50) was no less than 6.00.

`COc1cc2c(cc1-c1c(C)noc1C)OCC(=O)N2C(C)c1ccncc1` (single isomer, unassigned) [Compound 19, 7-(3,5-dimethylisoxazol-4-yl)-6-methoxy-4-(1-(pyridin-4-yl)ethyl)-2H-benzo[b][1,4]oxazin-3(4H)-one] gave a pIC50 of less than 5.52.

`COc1cc2c(cc1-c1c(C)noc1C)OCC(=O)N2C(C)c1ccncc1` (single isomer, unassigned) [Compound 20, 7-(3,5-dimethylisoxazol-4-yl)-6-methoxy-4-(1-(pyridin-4-yl)ethyl)-2H-benzo[b][1,4]oxazin-3(4H)-one] gave a negative-log IC50 (pIC50) of no less than 6.00.

`COc1cc2c(cc1-c1c(C)noc1C)OCC(=O)N2C(C)c1cccnc1` (single isomer, unassigned) [Compound 24, 7-(3,5-dimethytisoxazol-4-yl)-6-methoxy-4-(1-(pyridin-3-yl)ethyl)-2H-benzo[b][1,4]oxazin-3(4H)-one]: the pIC50 is no less than 6.00.

In the case of `COc1cc2c(cc1-c1c(C)noc1C)OCC(=O)N2C(C)c1cccnc1` (single isomer, unassigned) [Compound 25, 7-(3,5-dimethytisoxazol-4-yl)-6-methoxy-4-(1-(pyridin-3-yl)ethyl)-2H-benzo[b][1,4]oxazin-3(4H)-one], the negative logarithm of the IC50 (pIC50) was 5.52 to 6.00.

Regarding `COc1cc2c(cc1-c1c(C)noc1C)OCC(=O)N2C(C)c1ccc(Cl)cc1` (single isomer, unassigned) [Compound 33, 4-(1-(4-chlorophenyl)ethyl)-7-(3,5-dimethylisoxazol-4-yl)-6-methoxy-2H-benzo[b][1,4]oxazin-3(4H)-one], the negative-log IC50 (pIC50) is 5.52 to 6.00.

For the compound `COc1cc2c(cc1-c1c(C)noc1C)OCC(=O)N2C(C)c1ccc(Cl)cc1` (single isomer, unassigned) [Compound 34, 4-(1-(4-chlorophenyl)ethyl)-7-(3,5-dimethylisoxazol-4-yl)-6-methoxy-2H-benzo[b][1,4]oxazin-3(4H)-one], the pIC50 was no less than 6.00.

`COc1cc2c(cc1-c1c(C)noc1C)cc(C(O)C(F)(F)F)c(=O)n2Cc1ccccn1` (single isomer, unassigned) [Compound 102, 6-(3,5-dimethylisoxazol-4-yl)-7-methoxy-1-(pyridin-2-ylmethyl)-3-(2,2,2-trifluoro-1-hydroxyethyl)quinolin-2(1H)-one] gave a pIC50 of no less than 6.00.

In turn, `COc1cc2c(cc1-c1c(C)noc1C)OCCN2Cc1ccc(Cl)cc1` [Compound 1, 4-(4-chlorobenzyl)-7-(3,5-dimethylisoxazol-4-yl)-6-methoxy-3,4-dihydro-2H-benzo[b][1,4]oxazine] had a pIC50 of no less than 6.00.

On to `COc1ccc(Cn2c(=O)ccc3cc(-c4c(C)noc4C)c(OC)cc32)nc1` [Compound 2, 6-(3,5-dimethytisoxazol-4-yl)-7-methoxy-1-((5-methoxypyridin-2-yl)methyl)quinolin-2(1H)-one], for which the negative-log IC50 (pIC50) is no less than 6.00.

`COc1cc2c(ccc(=O)n2Cc2ccccn2)cc1-n1c(C)nnc1C` [Compound 3, 6-(3,5-dimethyl-4H-1,2,4-triazol-4-yl)-7-methoxy-1-(pyridin-2-ylmethyl)quinolin-2(1H)-one]: the negative-log IC50 (pIC50) is less than 5.52.

Take `COc1cc2c(cc1-c1c(C)noc1C)ncc(=O)n2Cc1ccc(Cl)cc1` [Compound 4, 1-(4-chlorobenzyl)-6-(3,5-dimethylisoxazol-4-yl)-7-methoxyquinoxalin-2(1H)-one]: the negative-log IC50 (pIC50) is no less than 6.00.

`COc1cc2c(cc1-c1c(C)noc1C)CCC(=O)N2Cc1ccc(Cl)cc1` [Compound 5, 1-(4-chlorobenzyl)-6-(3,5-dimethyisoxazol-4-yl)-7-methoxy-3,4-dihydroquinolin-2(1H)-one] showed a pIC50 of no less than 6.00.

On to `COc1cc2c(cc1-c1c(C)noc1C)OCCN2C(C)c1ccc(Cl)cc1` (stereo not shown) [Compound 6, 4-(1-(4-chlorophenyl)ethyl)-7-(3,5-dimethylisoxazol-4-yl)-6-methoxy-3,4-dihydro-2H-benzo[b][1,4]oxazine], for which the pIC50 is less than 5.52.

As for `COc1cc2c(cc1-c1c(C)noc1C)OCCN2C(C)c1cccnc1` (stereo not shown) [Compound 7, 7-(3,5-dimethylisoxazol-4-yl)-6-methoxy-4-(1-(pyridin-3-yl)ethyl)-3,4-dihydro-2H-benzo[b][1,4]oxazine], the pIC50 is no less than 6.00.

As for `COc1cc2c(ccc(=O)n2Cc2cnccn2)cc1-c1c(C)noc1C` [Compound 8, 6-(3,5-dimethylisoxazol-4-yl)-7-methoxy-1-(pyrazin-3-ylmethyl)quinolin-2(1H)-one], the negative-log IC50 (pIC50) is no less than 6.00.

As to `COc1cc2c(ccc(=O)n2Cc2ncccc2F)cc1-c1c(C)noc1C` [Compound 9, 6-(3,5-dimethylisoxazol-4-yl)-1-((3-fluoropyridin-2-yl)methyl)-7-methoxyquinolin-2(1H)-one], the pIC50 was no less than 6.00.

Consider `COc1cc2c(cc1-c1c(C)noc1C)CCC(=O)N2Cc1ccccn1` [Compound 10, 6-(3,5-dimethylisoxazol-4-yl)-7-methoxy-1-(pyridin-2-ylmethyl)-3,4-dihydroquinolin-2(1H)-one], for which the negative-log IC50 (pIC50) is no less than 6.00.

Compound `COc1cc2c(cc1-c1c(C)noc1C)OCCN2S(=O)(=O)c1cccc(Cl)c1` [Compound 11, 4-((3-chlorophenyl)sulfonyl)-7-(3,5-dimethylisoxazol-4-yl)-6-methoxy-3,4-dihydro-2H-benzo[b][1,4]oxazine] showed a pIC50 of 5.52 to 6.00.

For `COc1cc2c(cc1-c1c(C)noc1C)OCCN2S(=O)(=O)c1cccnc1` [Compound 12, 7-(3,5-dimethylisoxazol-4-yl)-6-methoxy-4-(pyridin-3-ylsulfonyl)-3,4-dihydro-2H-benzo[b][1,4]oxazine], the negative logarithm of the IC50 (pIC50) was 5.52 to 6.00.

Regarding `COc1cc2c(cc1NS(=O)(=O)c1c(C)noc1C)OCC(=O)N2Cc1ccc(Cl)cc1` [Compound 13, N-(4-(4-chlorobenzyl)-6-methoxy-3-oxo-3,4-dihydro-2H-benzo[b][1,4]oxazin-7-yl)-3,5-dimethylisoxazole-4-sulfonamide], the negative logarithm of the IC50 (pIC50) was less than 5.52.

The compound `COc1cc2c(ccc(=O)n2S(=O)(=O)c2ccc(Cl)cc2)cc1-c1c(C)noc1C` [Compound 14, 1-((4-chlorophenyl)sulfonyl)-6-(3,5-dimethylisoxazol-4-yl)-7-methoxyquinolin-2(1H)-one] had a negative logarithm of the IC50 (pIC50) of less than 5.52.

Turning to `COc1cc2c(ccc(=O)n2C(=O)c2ccc(Cl)cc2)cc1-c1c(C)noc1C` [Compound 15, 1-(4-chlorobenzoyl)-6-(3,5-dimethylisoxazol-4-yl)-7-methoxyquinolin-2(1H)-one], the pIC50 is less than 5.52.

On to `COc1cc2c(cc1-c1c(C)noc1C)OCCN2Cc1ccccc1N` [Compound 16, 2-((7-(3,5-dimethylisoxazol-4-yl)-6-methoxy-2H-benzo[b][1,4]oxazin-4(3H)-yl)methyl)aniline], for which the negative-log IC50 (pIC50) was no less than 6.00.

In turn, `COc1cc2c(cc1-c1c(C)noc1C)OCC(=O)N2Cc1ccncc1` [Compound 17, 7-(3,5-dimethylisoxazol-4-yl)-6-methoxy-4-(pyridin-4-ylmethyl)-2H-benzo[b][1,4]oxazin-3(4H)-one] had a pIC50 of no less than 6.00.

On to `COc1cc2c(cc1-c1c(C)noc1C)OCC(=O)N2Cc1ccc(Cl)cc1` [Compound 18, 4-(4-chlorobenzyl)-7-(3,5-dimethylisoxazol-4-yl)-6-methoxy-2H-benzo[b][1,4]oxazin-3(4H)-one], for which the pIC50 is no less than 6.00.

Take `COc1cc2c(cc1-c1c(C)noc1C)OCC(=O)N2Cc1cccnc1` [Compound 21, 7-(3,5-dimethylisoxazol-4-yl)-6-methoxy-4-(pyridin-3-ylmethyl)-2H-benzo[b][1,4]oxazin-3(4H)-one]: the negative logarithm of the IC50 (pIC50) is no less than 6.00.

Take `COc1cc2c(cc1-c1c(C)noc1C)OCC(=O)N2Cc1ccccn1` [Compound 22, 7-(3,5-dimethytisoxazol-4-yl)-6-methoxy-4-(pyridin-2-ylmethyl)-2H-benzo[b][1,4]oxazin-3(4H)-one]: the negative-log IC50 (pIC50) is no less than 6.00.

For `COc1cc2c(cc1-c1c(C)noc1C)OCC(=O)N2CC1CCOCC1` [Compound 23, 7-(3,5-dimethytisoxazol-4-yl)-6-methoxy-4-((tetrahydro-2H-pyran-4-yl)methyl)-2H-benzo[b][1,4]oxazin-3(4H)-one], the pIC50 is no less than 6.00.

Regarding `COc1ccc(CN2C(=O)COc3cc(-c4c(C)noc4C)c(OC)cc32)cn1` [Compound 26, 7-(3,5-dimethylisoxazol-4-yl)-6-methoxy-4-((6-methoxypyridin-3-yl)methyl)-2H-benzo[b][1,4]oxazin-3(4H)-one], the pIC50 is no less than 6.00.

`COc1cc2c(cc1-c1c(C)noc1C)OCC(=O)N2Cc1ccc(C#N)cn1` [Compound 27, 6-((7-(3,5-dimethylisoxazol-4-yl)-6-methoxy-3-oxo-2H-benzo[b][1,4]oxazin-4(3H)-yl)methyl)nicotinonitrile] gave a pIC50 of 5.52 to 6.00.
